# From patent publication US9668959B2, “A3 adenosine receptor ligands for modulation of pigmentation” (ORADIN PHARMACEUTICAL LTD., priority 2009, dated 2017)
# How the values were obtained:
# [1] = system: Akt; experiment: Akt phosphorylation in serum starved B16 melanocytes (western blot); format: cell-based, murine; settings: 10 μM, up to 3 h
# Description: (§1) B16 melanocytes grown in 6-well plates were serum starved overnight and then incubated in the presence of IB-MECA or MRS-1523 (10 μM), for different time intervals at 37° C. Cells were then rinsed with ice cold PBS and lysed by addition of RIPA buffer containing: proteinase inhibitor (PIC, 1:50 v/v), 0.1 mM phenylmethylsulphonylfluoride (PMSF) and 1 mM sodium orthovandate. Cells debris was removed by centrifugation. The protein level in the supernatants was determined using BSA as standard. Equal amounts of the sample (20 μg) were separated by SDS-PAGE using 10% polyacrylamide gels. The resolved proteins were then electroblotted onto nitrocellulose membrane. Membranes were blocked with 1% bovine serum albumin and incubated with anti-ERK-2 antibody (1:1000) or anti-phospho-ERK antibody (1:10000) for 1 h at room temperature, or with anti-Akt-1 antibody (1:1000) or with anti-phospho-Akt antibody […] at 4° C. for 24 h. Blots were then washed and incubated with horseradish peroxidase (conjugated secondary antibodies), for 1 hour at room temperature. The proteins were detected using ECL kit. For the detection of ERK phosphorylation after 72 hours of exposure to the ligands, non-starved cells were used (with 10% FCS).
# [2] = system: human breast skin; experiment: Ex vivo human skin organ culture, pigmentation by Fontana-Masson stain; format: cell-based; settings: for melanin accumulation and/or deposition in keratinocytes (histological appearance): FIG. 9
# Description: Formalin fixed paraffin embedded skin sections from samples of human breast skin treated with IB-MECA, MRS-1523 or hydroquinone as described for FIG. 8, were evaluated for Fontana-Masson staining and visualized by light microscopy (×400). IBMX (100 μM) was used as a positive control for induction of melanogenesis. K, keratinocytes; M, melanocytes.
# Samples of human breast skin obtained during breast surgery were cut into pieces (0.5×0.5 cm) and cultured in DMEM medium (described above) in 6 well plates and incubated at 37° C. with 5% CO2 for 12 days. Skin samples were topically treated with 10 or 50 μM of various A3 adenosine receptor ligands or 100 μM hydroquinone three times during the incubation period and the medium was exchanged every 3 days.
# [3] = system: Mitf; experiment: Mitf expression and localization in B16 melanocytes (immunostaining, confocal microscopy); format: cell-based, murine; settings: 10 μM; for Mitf expression: 3 h or 24 h, FIG. 7
# Description: B16 melanocytes were grown for 24 h on glass cover-slips coated with poly-L-lysine (500 ug/ml) in 6 wells plates in the presence of IB-MECA or MRS-1523 (10 μM), for 3 h or 24 h at 37° C. Cells were fixed in 4% formaldehyde in phosphate buffered saline (PBS) for 1 h at room temperature. […] To block non-specific interaction of the antibodies, cells were incubated with PBS (1% BSA, 0.1% Triton X-100). […] Cells were washed three times with PBS and mounted with Fluoromount (Sigma). Cells were visualized by confocal microscopy (excitation 553 and emission at 568, Lieca).
# [4] = system: B16 melanocytes; experiment: Melanin assay (melanin in cell lysates and media) in B16 melanocytes; format: cell-based, murine; settings: for melanin secretion to the media, visual (photograph): FIG. 3E; for detectable levels of melanin secreted to the medium (extracellular): after 24 hours of exposure; for increase of the total melanin level: FIG. 1B
# Description: B16 F1 melanoma cells were grown adherently and maintained in DMEM (without phenol red), containing 10% fetal calf serum, 1% antibiotics (penicillin, streptomycin and nystatin, each at 100 U/ml), and 2 mM L-glutamine. Cells were cultured at 37° C. in 5% CO2, and passaged two to three times weekly at a ratio of 1:10.
# Melanin content was determined as reported by Sato et al., (2008), Biol. Pharm. Bull., 31(1):33-7, with modifications. Cells (6.5×10^4) were seeded into 6 well plates with 5 ml of DMEM medium (described above) and incubated at 37° C. with 5% CO2 for 3-4 hours to enable cell adherence. Cells were then exposed to test chemicals (IB-MECA, MRS-1523 or kojic acid) at the desired concentration and incubation periods. After the treatment, the supernatants were collected to determine the amount of melanin secreted to the medium. Cells were washed with PBS, detached by incubation with trypsin/EDTA and then DMEM with serum (0.75 ml) was added to each well. Cells were collected by centrifugation and lysed by exposure to 2N NaOH (1 ml) at 60° C. for 1 h and the melanin content was determined by measuring the absorption at 400 nm. The amount of protein in each lysate was determined using bovine serum albumin is used as the standard. The amount of melanin in each sample was calculated using synthetic melanin as standard. The results were expressed as the melanin content per mg protein (μg/mg protein). To compare among treatments, the results were expressed as percent relative to control.
# [5] = system: human skin explants; experiment: Ex vivo human skin organ culture, pigmentation by DOPA staining and light transmission; format: cell-based; settings: for number of dark-stained DOPA positive melanocytes (D-P-M) compared to control: IB-MECA or MRS-1523 10 or 50 μM, hydroquinone 100 μM, FIGS. 8B and 8D; for melanin levels in skin explants: 10 or 50 μM, 12 days of exposure
# Description: Samples of human breast skin obtained during breast surgery were cut into pieces (0.5×0.5 cm) and cultured in DMEM medium (described above) in 6 well plates and incubated at 37° C. with 5% CO2 for 12 days. […] Treated skin samples were washed with PBS and the epidermal sheets were separated from the dermis and incubated in 0.1% L-3,4-DOPA in PBS for 4 h at 37° C. The epidermis sheets were then fixed with 4% formaldehyde solution, dehydrated by graded alcohol, cleared in xylene, and mounted on glass slides. DOPA positive melanocytes were visualized by light microscopy (×400 magnification). […] Light transmission of each area in the epidermis sheet was calculated and expressed as a mean of density of three images.
# [6] = system: ERK1/2; experiment: ERK1/2 phosphorylation in B16 melanocytes (western blot); format: cell-based, murine; settings: for ERK phosphorylation: 72 hours of exposure, non-starved cultures (10% FCS), FIG. 6B
# Description: as §1
# ERK phosphorylation in non-starved cultures (containing 10% FCS) after 72 hours of exposure to the ligands was examined.
# [7] = system: B16 melanocytes; experiment: Microscopy of melanosome level and distribution in treated B16 melanocytes; format: cell-based, murine; settings: 10 μM, 24 h, FIG. 3A
# [8] = system: A3 adenosine receptor; settings: cited from earlier work
# [9] = 10 μM, serum starved cells, FIG. 6A
# [10] = highest IB-MECA concentration, 5 days, FIG. 1A
smiles,measurement,setting,value
"CCCOC(=O)c1c(-c2ccccc2)nc(CC)c(C(=O)SCC)c1CCC [MRS-1523, 3-propyl-6-ethyl-5[(ethylthio)carbonyl]-2-phenyl-4-propyl-3-pyridine carboxylate]",Akt phosphorylation on continued exposure,[1],downregulation of P-Akt
same,melanin accumulation and/or deposition in keratinocytes (histological appearance),[2],lesser extent of melanin accumulation and/or deposition in the keratinocytes
same,pigmentation of Fontana-Masson stained skin sections compared to control,[2]; concentration not given,decreased pigmentation
same,Mitf expression,[3],very low Mitf expression
same,melanin level in the cells decreased by,"[4]; 1 μM, 5 days",27±5.7%
same,total melanin decreased by,"[4]; 1 μM, 5 days",37±5.7%
same,melanin level in the cells decreased by,"[4]; 5 μM, 5 days",24±1.7%
same,total melanin decreased by,"[4]; 5 μM, 5 days",24±1.9%
same,decrease in the overall melanin level,"[4]; 10 μM, 5 days",88±1.3%
same,"melanin secretion to the media, visual (photograph)","[4]; 10 μM, 5 days",visually observable decrease in melanin
same,detectable levels of melanin secreted to the medium (extracellular),[4]; 10 μM,not observed
same,total melanin level decreased by,"[4]; 10 μM, four days (96 h)",67±4.4%
same,melanin level within the cells decreased by,"[4]; 40 μM, 5 days, FIG. 2A",11±2.3%
same,melanin secretion blocked by,"[4]; 40 μM, 5 days, FIG. 2A",88±1.7%
same,decrease in total melanin,"[4]; 40 μM, 5 days, FIG. 2B",67±1.07%
same,decrease of the intracellular melanin,"[4]; ""this treatment"" (concentration unclear), 5 days",48%±4.9
same,secreted and total melanin levels compared to control,"[4]; all concentrations within 1-40 μM, 5 days",lower than that of the control
same,pigmentation decreased by (light transmission through epidermal sheets after DOPA staining),"[5]; 10 μM, 12 days",80+21.8%
same,pigmentation decreased by (light transmission through epidermal sheets after DOPA staining),"[5]; 50 μM, 12 days",49.5 ± 6.9%
same,number of dark-stained DOPA positive melanocytes (D-P-M) compared to control,[5]; 12 days,decreased number
same,melanin levels in skin explants,[5]; topical,decreased melanin levels
same,time to induced phosphorylation of ERK 1,[6]; [9],≤ 30 min
same,time to induced phosphorylation of ERK 2,[6]; [9],≤ 10 min
same,ERK phosphorylation,[6],stimulated phosphorylation of both ERK1 and ERK 2
same,melanosome level and distribution in the cytosol,[7],more melansomes were observed in the cell periphery and in the dendritic sites of the control and IB-MECA treated melanocytes as compared to MRS-1523 treated cells
"CNC(=O)[C@H]1O[C@@H](n2cnc3c(NCc4cccc(I)c4)ncnc32)[C@H](O)[C@@H]1O [IB-MECA, N^6-(3-iodobenzyl) adenosine-5′-(N-methyluronamide)]",Akt phosphorylation on continued exposure,[1],increased phosphorylation of Akt
same,selectivity for the A3 adenosine receptor versus either the A1 or A2A receptors,[8],50 fold
same,pigmentation of Fontana-Masson stained skin sections compared to control,[2]; 10 μM,increased pigmentation
same,melanin accumulation and/or deposition in keratinocytes (histological appearance),[2],elevation in melanin accumulation and/or deposition in the adjacent keratinocytes
same,time to translocation of Mitf protein to the nucleus,[3],≤ 3 h
same,Mitf expression,[3],highly expressed
same,Mitf expression in cytoplasm and nucleus,[3]; after 24 h of exposure,remained high
same,increase of the total melanin level,"[4]; 5 μM, 5 days",220±19.4%
same,level of total melanin,"[4]; 10 μM, 72 hours of exposure",non-significantly increased
same,increase in the total melanin level,"[4]; 10 μM, 120 h",537±31.9%
same,increase of the total melanin level,"[4]; 10 μM, 5 days",369±1%
same,"melanin secretion to the media, visual (photograph)","[4]; 10 μM, 5 days",visually observable increase in melanin
same,detectable levels of melanin secreted to the medium (extracellular),[4]; 10 μM,not observed
same,total melanin level increased by,"[4]; 10 μM, four days (96 h)",198±12.1%
same,increase of the total melanin level,"[4]; 40 μM, 5 days",441±53.8%
same,intracellular melanin level increased by,[4]; [10],143±4.1%
same,secretion of melanin to the media increased by,[4]; [10],554±23.8%
same,pigmentation increased by (light transmission through epidermal sheets after DOPA staining),"[5]; 10 μM, 12 days",27+3.9%
same,pigmentation increased by (light transmission through epidermal sheets after DOPA staining),"[5]; 50 μM, 12 days",36+2.6%
same,number of dark-stained DOPA positive melanocytes (D-P-M) compared to control,[5]; 12 days,increased number
same,melanin levels in skin explants,[5]; topical,increased melanin levels
same,level of ERK phosphorylation,"[6]; 10 μM, 10 min to 3 h, serum starved cells, FIG. 6A",did not increase the level of ERK phosphorylation
same,ERK phosphorylation,[6],did not appear to affect ERK phosphorylation
same,melanosome level and distribution in the cytosol,[7],melanosomes were accumulated in the perinuclear areas
"CC(C)Cn1c(=O)n(C)c(=O)c2[nH]cnc21 [IBMX, 3-isobutyl-1-methyl-xanthine]",pigmentation of Fontana-Masson stained skin sections compared to control,"[2]; 100 μM, positive control",increased pigmentation
Oc1ccc(O)cc1 [hydroquinone],number of dark-stained DOPA positive melanocytes (D-P-M) compared to control,[5]; 12 days,increased number
same,skin pigmentation,"[5]; topical, 100 μM, 12 days",increased skin pigmentation
O=c1cc(CO)occ1O [kojic acid],effect on melanin synthesis and secretion,"[4]; 5 days, FIG. 4A",both melanin synthesis (overall melanin levels) and secretion (melanin level in the medium) were affected
same,inhibition in the total melanin level,"[4]; 5 days, concentration not given, FIG. 4B",51%±2.4
